Results from patent publication US20130303482A1, “Cylodextrin Complexation Methods for Formulating Peptide Proteasome Inhibitors” (ONYX THERAPEUTICS, INC., priority 2012, published 2013).
Converted amounts (≈) assume the structure as drawn.

What was measured:
[1] = Slurry complexation / solubilization of CFZ-API in SBECD with citric acid (Example 1); format: physicochemical
Experimental: In a 525 L stainless steel jacketed cooled tank controlled to 2° C.-8° C., a suspension of 2.0 kg carfilzomib-API (CFZ-API), 246 kg water for injection (WFI), and 100 kg sulfobutylether beta-cyclodextrin (SBECD) was prepared. Specifically, in the 525 L stainless steel jacketed cooled tank controlled to 2° C.-8° C., 100 kg SBECD was dissolved in 246 kg WFI. The Carfilzomib suspension was then prepared using 2.0 kg of CFZ-API. Mixing was performed using an impeller mixer to maintain suspension of the CFZ-API solids and dissolve the SBECD. In the same vessel, a probe style rotor-stator high shear mixer (homogenizer) was used as well as the low shear impeller. The high shear mixer was operated for approximately 1 hour yielding an even suspension and reduction of particle size for any larger primary particles or agglomerated API. After a suspension was achieved, 1.96 kg of citric acid was added as a 16% aqueous solution. The pH of the solution was then lowered inducing partial solubilization of the CFZ-API followed by and complexation due to the presence of SBECD. Mixing was continued for a further 24 hours with both the impeller and the high shear mixer and a dissolved concentration of CFZ-API of greater than 5.1 mg/mL was achieved. The suspension containing greater than 5.1 mg/mL of dissolved complexed CFZ-API was filtered with a 0.45 micrometer clarifying filter, then accurately diluted to a dissolved concentration of 5.0 mg/mL and pH adjusted with 1 N sodium hydroxide solution to achieve pH 3.5. The solution was sterile filtered, with two sequential 0.22 micrometer sterilizing filters, then filled into vials 12.36 mL each, containing 61.8 mg per vial of CFZ-API. The vials were partially stoppered and loaded into a lyophilizer and freeze dried over 103 hours using a freezing temperature of −45° C., primary drying temperature of −15° C., and secondary drying of +30° C. The lyophilized vials were fully stoppered, and capped, then stored at the product stability temperature of 2° C.-8° C. for up to two years before use. […]

[2] = CDP (chlorohydrin degradation product) formation in lyophilized complexed carfilzomib vs pH, water and sodium chloride content, HPLC (Example 2); format: physicochemical
Experimental: A multivariate statistical design of experiments was conducted to assess factors controlling the level of chlorohydrin degradation product as a function of processing parameters and storage time over six months. The complexation was performed in the proportion and parameters given in Example 1, with the following modifications: (i) the complexation process was performed at 2 L batch size; (ii) the final pH of solution before vial filling was varied for purposes of the experiment from 3.0, to 4.0; (iii) sodium chloride was spiked into SBECD in some experiments to create a high sodium chloride condition; (iv) water content of the lyophilized final product in stoppered vials was produced at high and low sodium chloride conditions via early termination and stoppering of vials to create a higher residual water content condition.
The solution of complexed carfilzomib for injection bulk solution pre-lyophilization included aqueous 5 mg/mL carfilzomib, 250 mg/mL Captisol® (SBECD) and 4.86 mg/mL citric acid, pH adjusted with aqueous sodium hydroxide. Compounding of the bulk solutions for lyophilization followed the procedure detailed in Example 1 with the following manipulations to create solutions with different specific attributes: • 1. pH was adjusted to 3.0 and 4.0 • 2. Sodium chloride was spiked into the Captisol® to create a “High Chloride” condition Captisol® manufactured by Cydex, a subsidiary of Ligand, has a standard product analysis range for sodium chloride from 0.05% to 0.2% (w/v). […] 400 g of this Captisol® was required per batch for the process to be performed at 2 L scale batches of complexation processing (in same proportions and general parameters per Example 1). To create the “high chloride” condition, 0.6 g of NaCl was added to 399.4 g of Captisol® which thus mimicked what a batch containing 0.2% chloride Captisol® would be comprised of.
In order to generate two (2) moisture content conditions in the final lyophilized vials, two (2) sets of 61.8 mg/vial (of CFZ-API) samples were lyophilized. The first cycle generated the “dry” sample set of vials containing approximately 0.6% residual water per Example 1 lyophilization parameters. For the second sample set, lyophilization was terminated and vials stoppered earlier in the secondary drying phase to generate the “wet” condition vials, with residual moisture approximately 2.4% water per vial initially.
The bulk solution of complexed carfilzomib was analyzed during manufacture by High Performance Liquid Chromatography (HPLC) to accurately quantify the concentration of dissolved and complexed carfilzomib drug substance. Subsequently, additional water was added to accurately dilute the bulk complexed solution. After this dilution step, HPLC was used again to ensure a target concentration of 5.0 mg/mL was achieved. Samples of the three (3) final bulk solutions were analyzed for potency and purity confirmation testing by HPLC. […] Karl Fischer Coulometry method was used for the water content determination in the lyophilized drug product.

[3] = Solubility of carfilzomib as a function of SBECD concentration, pH 1.5 and 3.5, 5° C. and 25° C. (Example 4); format: physicochemical; details: SBECD solutions, citric acid 30 mM, pH 1.5 and 3.5, 5° C. vs 25° C., 24 hours
Experimental: The experiments at acidic conditions below the target pH values and titrated to pH 1.5 or 3.5 using aqueous sodium hydroside solution. Measurements of solubilized concentration were those from samples analyzed after 24 hours of time to equilibrate.

CC(C)C[C@H](NC(=O)[C@H](CCc1ccccc1)NC(=O)CN1CCOCC1)C(=O)N[C@@H](Cc1ccccc1)C(=O)N[C@@H](CC(C)C)C(=O)[C@@]1(C)CO1 [carfilzomib]
extent of solubilization vs API particle size (FIG. 2) ([1]; 24 hour complexation, mean API particle size 21.1 vs 7.5 micrometers): equivalent extent of solubilization
dissolved concentration of CFZ-API ([1]; SBECD/WFI/citric acid slurry, 2° C.-8° C., 24 hours mixing): greater than 5.1 mg/mL
effect of higher SBECD concentration on solubility (FIG. 3) ([1]; process of Example 1): increased the solubility
% Area of CDP after 6 months (HPLC data) ([2]; pH 3.00, water 0.7%, sodium chloride 0.05%, 5° C.): 0.00 % Area
% Area of CDP after 6 months (HPLC data) ([2]; pH 3.00, water 0.7%, sodium chloride 0.05%, 25° C.): 0.14 % Area
% Area of CDP after 6 months (HPLC data) ([2]; pH 3.00, water 0.7%, sodium chloride 0.2%, 5° C.): 0.13 % Area
% Area of CDP after 6 months (HPLC data) ([2]; pH 3.00, water 0.7%, sodium chloride 0.2%, 25° C.): 0.70 % Area
% Area of CDP after 6 months (HPLC data) ([2]; pH 3.00, water 2%, sodium chloride 0.05%, 5° C.): 0.02 % Area
% Area of CDP after 6 months (HPLC data) ([2]; pH 3.00, water 2%, sodium chloride 0.05%, 25° C.): 0.55 % Area
% Area of CDP after 6 months (HPLC data) ([2]; pH 3.00, water 2%, sodium chloride 0.2%, 5° C.): 0.28 % Area
% Area of CDP after 6 months (HPLC data) ([2]; pH 3.00, water 2%, sodium chloride 0.2%, 25° C.): 2.57 % Area
% Area of CDP after 6 months (HPLC data) ([2]; pH 4.00, water 0.7%, sodium chloride 0.05%, 5° C.): 0.00 % Area
% Area of CDP after 6 months (HPLC data) ([2]; pH 4.00, water 0.7%, sodium chloride 0.05%, 25° C.): 0.09 % Area
% Area of CDP after 6 months (HPLC data) ([2]; pH 4.00, water 0.7%, sodium chloride 0.2%, 5° C.): 0.08 % Area
% Area of CDP after 6 months (HPLC data) ([2]; pH 4.00, water 0.7%, sodium chloride 0.2%, 25° C.): 0.36 % Area
% Area of CDP after 6 months (HPLC data) ([2]; pH 4.00, water 2%, sodium chloride 0.05%, 5° C.): 0.02 % Area
% Area of CDP after 6 months (HPLC data) ([2]; pH 4.00, water 2%, sodium chloride 0.05%, 25° C.): 0.35 % Area
% Area of CDP after 6 months (HPLC data) ([2]; pH 4.00, water 2%, sodium chloride 0.2%, 5° C.): 0.18 % Area
% Area of CDP after 6 months (HPLC data) ([2]; pH 4.00, water 2%, sodium chloride 0.2%, 25° C.): 1.71 % Area
difference in solubility between low and high temperature (FIG. 6) [3]: No significant differences in solubility
solubility (physchem; pH 1, simulated gastric fluid): 1800 µg/mL (≈ 2500 µM)
solubility (physchem; pH 3, aqueous buffer): 20 µg/mL (≈ 27.8 µM)
solubility (physchem; pH 5, aqueous buffer): 2 µg/mL (≈ 2.78 µM)
solubility (physchem; water): 2 µg/mL (≈ 2.78 µM)
